We go through six compounds from article PMC8407143 (Bioorganic & medicinal chemistry letters, 2021).

The target in test [1] is T1, E. coli IspF (Escherichia coli, UniProt P62617).
T1 sequence (P62617 1-159): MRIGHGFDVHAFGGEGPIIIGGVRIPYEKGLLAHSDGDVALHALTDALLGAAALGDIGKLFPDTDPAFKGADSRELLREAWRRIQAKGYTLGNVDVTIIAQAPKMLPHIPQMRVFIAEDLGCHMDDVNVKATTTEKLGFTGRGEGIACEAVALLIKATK
The settings on record: cited from earlier work.

The target of test [2] is B. pseudomallei IspF (BpIspF) (Burkholderia pseudomallei, UniProt Q3JRA0). Nature of the test: biochemical. Format: binding. The settings on record: for Kd: KD,app.
B. pseudomallei IspF (BpIspF), sequence (Q3JRA0 whole entry, looked up): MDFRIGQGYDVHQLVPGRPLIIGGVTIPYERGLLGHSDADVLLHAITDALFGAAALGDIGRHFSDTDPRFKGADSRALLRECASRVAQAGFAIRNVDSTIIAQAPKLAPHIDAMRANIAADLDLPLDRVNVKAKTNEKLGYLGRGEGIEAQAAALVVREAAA
Test [3] concerns the target T1, E. coli IspF. The class given is binding. The following applies: pH 7.4.
For another test, the target named is BpIspF (Burkholderia pseudomallei, UniProt Q3JRA0). The class given is binding.
BpIspF, sequence (Q3JRA0 whole entry, looked up): as above
Test [4] has as its target T1, E. coli IspF. The following applies: cited from earlier work. This is another data set of the same source.

“Also recorded” adds a separate entry of the source. Where only a bound is given, the exact number is not on record here.

As for `CC(C)=CCC/C(C)=C/CC/C(C)=C/CO[P@@](=O)(O)OP(=O)(O)O` (stereo in doubt) [farnesyl diphosphate (FPP), farnesyl diphosphate], the “direct feedback inhibition of E. coli IspF (in words)” value at E. coli IspF [1] is given as “did not observe direct feedback inhibition”.

Take `N[C@H](Cc1c[nH]c2ccccc12)C(=O)NO` [D-tryptophan hydroxamate]: the “change in affinity relative to L-tryptophan hydroxamate (3)” value in test [2] is on record as “less than a twofold drop in affinity; also recorded: less than two-fold weaker”. Also, the “N (stoichiometry)” value in test [2] (pH 7.4) is on record as 0.7.

On to `N[C@H](Cc1c[nH]c2ccccc12)C(=O)O` [D-tryptophan, reference compound], for which the Kd in test [2] is greater than 1000 µM. The “binding (in words)” value in test [2] (pH 7.4) is “undetectable binding; also recorded: did not show appreciable binding”.

Regarding `N[C@@H](Cc1c[nH]c2ccccc12)C(=O)NO` [L-tryptophan hydroxamate (3), L-tryptophan hydroxamate], the “binding at pH 6.0 compared to pH 7.4 (fold weaker)” value in test [2] is given as “approximately 25 fold”. The “N (stoichiometry)” value in test [2] (pH 7.4) turned out to be 1.5 ± 0.2. Also, in test [2] (pH 8), the “N (stoichiometry)” value came out at 1.4 ± 0.4. Also, at E. coli IspF [3], the “N (stoichiometry)” value came to 1.2 ± 0.3. In addition, on BpIspF, the “Relative Percent Saturation Transfer, proton A” value is given as 100%; the “Relative Percent Saturation Transfer, proton B” value is on record as 60–65%; the “Relative Percent Saturation Transfer, proton C” value is on record as 80–85%; the “Relative Percent Saturation Transfer, proton D” value is 75–80%. For the same compound, on BpIspF, the “Relative Percent Saturation Transfer, proton E” value was 80–85%; the “Relative Percent Saturation Transfer, proton F” value is on record as 25–30%; the “Relative Percent Saturation Transfer, proton G” value is listed as 50–55%. The Kd at E. coli IspF [4] is roughly 2 µM.

`N[C@@H](Cc1c[nH]c2ccccc12)C(=O)O` [L-tryptophan, reference compound]: the Kd in test [2] is greater than 1000 µM. Besides, the “binding (in words)” value in test [2] (pH 7.4) was “did not show appreciable binding”.

On to `CC(C)=CCC/C(C)=C/COP(=O)(O)OP(=O)(O)O` [geranyl diphosphate (GPP), geranyl diphosphate, reference compound], for which the “interaction with BpIspF by STD NMR (in words)” value on BpIspF is recorded as “did not show significant interaction”.
